Patent US20090233997A1, “COMPOSITION FOR PROMOTING SYNTHESIS OF COLLAGEN, AND COMPOSITION FOR EXTERNAL PREPARATION FOR SKIN COMPRISING THE SAME” (LG HOUSEHOLD & HEALTH CARE, LTD., priority 2003, published 2009)
≈ marks a conversion by molar mass, not a printed value. Where “and” joins values, the source holds several entries; their conditions need not be identical. Equal values may be shown once.

Legend:
human fibroblasts = assay: Collagen synthesis effect in human fibroblast culture (PICP EIA Kit); format: cell-based; settings: for Quantity of Synthesized Collagen: cultured one day, 450 nm, n=6; for Increase Rate: relative ratio to collagen generation of control group
Method: The collagen synthesis effect of Xanthotoxol was tested by adding Xanthotoxol to a culture broth for human fibroblasts. The quantity of the synthesized collagen was assayed by using a Procollagen Type I C-Peptide Enzyme ImmunoAssay (PICP EIA) Kit.
Xanthotoxol solution aliquots having final concentrations of 0.5 μg/ml, 1 μg/ml, 2 μg/ml, 5 μg/ml, and 10 μg/ml were added to a culture media for human fibroblasts, and the fibroblasts were cultured for one day. The culture broth of each concentration was taken out and the quantity of synthesized collagen was measured with a spectrophotometer at 450 nm by using the PICP EIA Kit.
To compare the effect of collagen synthesis, the human fibroblasts were cultured in a culture medium to which no extra element was added (i.e., a control group) and in a culture medium to which vitamin C having a final concentration of 52.8 μg/ml was added, and the quantity of synthesized collagen was measured with respect to the two samples with the same method as above.
The quantity of generated collagen was measured by using an ultraviolet ray (UV) spectrophotometer, and the increase rate of collagen generation was calculated in a relative ratio with respect to the collagen generation quantity of the control group.
The quantity of synthesized collagen and the increase rate of collagen were measured with the same method as in Experimental Example 1, except that 8-hydroxybergapten was used instead of xanthotoxol.
The quantity of synthesized collagen and the increase rate of collagen were measured with the same method as in Experimental Example 1, except that prangenidin was used instead of xanthotoxol.

[1] = Antioxidative effect in the DPPH scavenging method; settings: 30 minutes, 517 nm
Method: The antioxidative effects of 8-hydroxybergapten and prangenidin were measured by using 1,1-diphenyl-2-picrylhydrazyl (DPPH). The radical scavenging activity of each sample was calculated by measuring an optical density (O.D.) at 517 nm with a spectrophotometer. Sample solutions were prepared by extracting samples, i.e., 8-hydroxybergapten and prangenidin, in accordance with the methods of Examples 2 and 3 and mixing the samples in concentrations of 3 μg/ml, 5 μg/ml, 10 μg/ml, 12 μg/ml, 50 μg/ml, 80 μg/ml, and 100 μg/ml, individually. Then, experimental solutions were prepared by mixing the 500 μl aliquots of the tested sample solutions with 500 μl of a 1.5×10^−4 M DPPH methanolic solution. The quantity of DPPH remaining in each experimental solution was measured 30 minutes after the preparation of experimental solutions by using the spectrophotometer at 517 nm. In order to subtract the inherent optical densities of the samples from the measurement values of the experimental solutions, the optical densities of the sample solutions of the same concentrations were also measured at 517 nm. A control solution was prepared by mixing 500 μl of a 1.5×10^−4 M DPPH methanolic solution with 500 μl of a methanol solution and using the mixture 30 minutes after the preparation. The radical scavenging activity of each sample was calculated based on the following Equation 2.
To determine the radical scavenging activity of each sample, a coefficient of correlation (R), which is a value in connection with the radical scavenging activity, was obtained, and an IC50, a value that scavenges DPPH by 50%, was calculated. Also, in order to compare the antioxidative effects, the same experiment was carried out with respect to vitamin C.

[2] = system: skin wrinkles of hairless mice; assay: Anti-wrinkle effect on hairless mice with light-induced skin wrinkles; format: in vivo; settings: 5 mg/ml in 1,3-butyleneglycol, treated 6 weeks, group of 10
Method: The anti-wrinkle effects of xanthotoxol, 8-hydroxybergapten, and prangenidin were tested with respect to 6-week-old hairless mice having skin wrinkles caused by radiating light. Samples were prepared by extracting xanthotoxol, 8-hydroxybergapten, and prangenidin in accordance with Examples 1 through 3 and dissolving them in 1,3-butyleneglycol to thereby prepare 5 mg/ml sample solutions.
The skin wrinkles were caused by radiating light of 2 Minimum Erythema Dose (MED) to hairless mice with a solar simulator, three days a week for 10 weeks. Then, the improvement was assayed based on quality with respect to a control group of hairless mice treated with 1,3-butyleneglycol and test groups of hairless mice treated with the 5 mg/ml samples for 6 weeks.
The extent of wrinkle improvement was determined with the naked bare eye and by photographing the areas treated with the samples. The test groups and the control group were compared and the result was determined in three steps: no improvement; some improvement; and remarkable improvement.

[3] = system: ear edema of hairless mice; assay: Anti-inflammatory effect, ear swelling method (arachidonic acid); format: in vivo; settings: 1 wt % in ethanol, 20 μl/ear, 2 mg/ear arachidonic acid, test ear vs controlled ear, group of 3
Method: The anti-inflammatory effect was evaluated in an ear swelling method by using 6-week-old hairless mice. The left ears of the hairless mice were used as controlled areas to be compared with the test areas, and the right ears of the hairless mice were used as the test areas. Prior to the test, both ears of all the hairless mice were measured three times. Sample solutions were prepared by extracting xanthotoxol, 8-hydroxybergapten, and prangenidin in accordance with […] and dissolving them in ethanol at 1 wt %, individually. Then, 20 μl/ear sample solutions were applied to the right ears of the hairless mice, and 20 μl/ear of ethanol was applied to the left ear thereof. An hour later, 2 mg/ear of arachidonic acid was applied to both ears of the hairless mice. After another hour had passed, the extent of ear edema was measured by using a micrometer, three times. Also, for comparison purposes, the anti-inflammatory effect of indomethacine, which is generally known as an anti-inflammatory agent, was measured with the same method.
The anti-inflammatory effect was a ratio of a thickness of an ear in the test area to the thickness of an ear in the controlled area. It was calculated based on the following Equation 1 and presented as a damage rate.
Damage rate (%)=(thickness of ear in test area/thickness of ear in controlled area)×100 Equation 1

incision wounds of rats = assay: Wound healing effect, tension stiffness method; format: in vivo; settings: for Tensile Strength: 1 wt % in ethanol, 0.5 ml/cm^2 once every day for 6 days; for Strength Rate: relative to control group (ethanol only) taken as 100%
Method: A wound healing effect was tested with respect to 5-week-old male rats by using a tension stiffness method that reflects the quality and quantity of restoration from wounds. The backs of the rats were shaved and wounded with a scalpel, and then the incision was sutured. Sample solutions were prepared by extracting 8-hydroxybergapten and prangenidin in accordance with Examples 2 and 3, and dissolving them in ethanol at 1 wt %, individually. The sample solutions were injected into the incisions at 0.5 ml/cm^2 once every day for 6 days. After 6 days, the rats were sacrificed and the skin around the wounds was removed. Three skin specimens of 1 cm-wide skin flakes crossing the incision line were prepared for each individual and their tensile strength (g/cm) was measured by using a rheometer. The measured tensile strength was used as an index of the strength of the generated collagen fiber. The tensile strength of the control group, to which only ethanol without the sample therein was applied, was taken as 100% and the increase in the tensile strength was measured as a relative strength thereto.

| SMILES | Quantity of Synthesized Collagen (human fibroblasts; 52.8 μg/ml) | Increase Rate (human fibroblasts; 52.8 μg/ml) | IC 50 (scavenges DPPH by 50%) [1] [µg/mL] | No Improvement (number of mice) [2] | Remarkable Improvement (number of mice) [2] | Some Improvement (number of mice) [2] | Damage Rate [3] [%] | Tensile Strength (incision wounds of rats) [g/cm] | Strength Rate (incision wounds of rats) [%] | Quantity of Synthesized Collagen (human fibroblasts; 0.5 μg/ml) [Abs] | Increase Rate (human fibroblasts; 0.5 μg/ml) [%] | Quantity of Synthesized Collagen (human fibroblasts; 1.0 μg/ml) [Abs] | Increase Rate (human fibroblasts; 1.0 μg/ml) [%] | Quantity of Synthesized Collagen (human fibroblasts; 2.0 μg/ml) [Abs] | Increase Rate (human fibroblasts; 2.0 μg/ml) [%] | Quantity of Synthesized Collagen (human fibroblasts; 5.0 μg/ml) [Abs] | Increase Rate (human fibroblasts; 5.0 μg/ml) [%] | Quantity of Synthesized Collagen (human fibroblasts; 10.0 μg/ml) [Abs] | Increase Rate (human fibroblasts; 10.0 μg/ml) [%] |
| --- | --- | --- | --- | --- | --- | --- | --- | --- | --- | --- | --- | --- | --- | --- | --- | --- | --- | --- | --- |
| O=C1O[C@H]([C@@H](O)CO)C(O)=C1O [Vitamin C, vitamin C, reference compound] | 1.598 ± 0.145 Abs and 1.757 ± 0.121 Abs and 1.739 ± 0.145 Abs | 141.57% and 134.1% and 130.8% | 8.43 (≈ 47.9 µM) | – | – | – | – | – | – | – | – | – | – | – | – | – | – | – | – |
| O=c1ccc2cc3ccoc3c(O)c2o1 [Xanthotoxol, 8-hydroxypsoralen] | – | – | 24.0 (≈ 119 µM) | 2 | 3 | 5 | 42 | 642 | 117 | 1.449 ± 0.039 | 128.36 | 1.535 ± 0.078 | 135.94 | 1.623 ± 0.084 | 143.75 | 1.651 ± 0.130 | 146.24 | 1.657 ± 0.112 | 146.81 |
| CC(C)=CCc1c2ccoc2c(O)c2oc(=O)ccc12 [Prangenidin, 5-Benzofuranacrylic acid, 6,7-dihydroxy-4-(3-methyl-2-butenyl)-delta-lactone] | – | – | 21.6 (≈ 79.9 µM) | 1 | 4 | 5 | 40 | 663 | 121 | 1.537 ± 0.099 | 115.6 | 1.778 ± 0.121 | 133.7 | 1.801 ± 0.135 | 135.4 | 1.813 ± 0.130 | 136.3 | 1.820 ± 0.204 | 136.8 |
| COc1c2ccoc2c(O)c2oc(=O)ccc12 [8-Hydroxybergapten, 5-benzofuranacrylic acid and 6,7-dihydroxy-4-methoxy-, delta-lactone] | – | – | 20.3 (≈ 87.4 µM) | 0 | 6 | 4 | 45 | 680 | 124 | 1.590 ± 0.102 | 121.4 | 1.876 ± 0.097 | 143.2 | 1.949 ± 0.111 | 148.8 | 1.953 ± 0.132 | 149.1 | 2.008 ± 0.129 | 153.3 |
| COc1ccc2c(c1)c(CC(=O)O)c(C)n2C(=O)c1ccc(Cl)cc1 [Indomethacine, indomethacine, reference compound] | – | – | – | – | – | – | 51 | – | – | – | – | – | – | – | – | – | – | – | – |
